Experiment [1] concerns CHO cells expressing the human 5HT1aR. The experiment can be described thus: Forskolin-stimulated cAMP production (EIA). The class given is cell-based. Particulars: for [cAMP] (SEM), relative to FSK-stimulated control: 30 uM FSK, 100 uM IBMX, 20 min 37°C, control = 100; for FSK stimulated cAMP (%): Figure 5, IBMX, FSK control = 100. How it is done: CHO cells were cultured to confluency in 12- or 24-well plates. Medium was aspirated, and the cells were rinsed twice in warm, serum-free F-12 medium. Cells were incubated for 20 min. at 37°C in 0.5 mls of serum-free F-12 medium containing 100 uM isobutylmethylxanthine (IBMX) and the following substances (final concs.) alone or in combination (see Figures 3 and 5): 30 μM forskolin (FSK; for all treatments); 1 μM 5-HT; peptide concentrations as noted in figure legends. Reactions were stopped by aspiration of medium and addition of 0.5 mL of 100 mM HCl. After 10 min., well contents were removed and centrifuged at 4000 rpm. Supernatants were diluted in 100 mM HCl, and cAMP was quantified directly in a microplate format by enzyme immunoassay (EIA) with a kit from Assay Designs (Ann Arbor). Triplicate-independent samples were assayed.
(cAMP levels reflect the balance of adenylyl cyclase and phosphodiesterase activity.)

For experiment [2], the system named is Gi in H5-HT1aR membranes from transfected CHO cells. The experiment can be described thus: [35S]GTPγS incorporation into Gi. The class given is biochemical, human. Particulars: for GTP Incorp. (SEM), γ-[35S]-GTP into Gi, percent of control: peptide 30 uM (Figure 2), basal control = 100, 30 min 30°C. How it is done:
H5-HT1aR membranes from transfected CHO cells were incubated with 5-HT (0.1 μM) and/or peptide concentrations as noted in figure legends (see Figures 2 and 4) and the following incubation mixture: 20 mM HEPES buffer, pH 7.4, 5 mM MgCl2, 1 mM EDTA, 1 mM DTT, 100 mM NaCl, 100 uM GDP, 10 μM pargyline, 0.2 mM ascorbate, and 0.1 nM [35S]GTPγS [53, 58]. Mixtures were incubated for 30 min. at 30°C, and were terminated by dilution in cold buffer. The mixture was filtered on GF/C filters, rinsed twice in buffer, dried and counted by liquid scintillation. All values reported in are for specific binding (total nonspecific) of triplicates. Nonspecific binding was determined in the presence of cold γ-S-GTP (10 uM). Negative control is the above mixture minus test drug or 5HT. Positive control contains 5HT.
A general note: Binding of GTPγS marks nucleotide exchange on a G protein.

Experiment [3] has as its target T1, H5-HT1aR (Homo sapiens, UniProt P08908).
T1 construct: expressed in transfected cells; host or cells: CHO cells (Chinese hamster ovary), crude membranes
T1 sequence (P08908 1-422): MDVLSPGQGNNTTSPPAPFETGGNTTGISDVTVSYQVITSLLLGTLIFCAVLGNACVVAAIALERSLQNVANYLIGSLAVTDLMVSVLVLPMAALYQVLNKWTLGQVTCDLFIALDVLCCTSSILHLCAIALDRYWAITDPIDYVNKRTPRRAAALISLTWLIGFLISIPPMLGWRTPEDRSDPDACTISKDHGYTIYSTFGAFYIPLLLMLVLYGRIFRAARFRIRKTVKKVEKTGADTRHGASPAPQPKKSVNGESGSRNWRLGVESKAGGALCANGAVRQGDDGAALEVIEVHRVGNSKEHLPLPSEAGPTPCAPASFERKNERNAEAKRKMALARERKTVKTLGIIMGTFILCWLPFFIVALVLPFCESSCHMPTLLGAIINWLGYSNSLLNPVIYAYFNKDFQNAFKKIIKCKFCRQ
As to conditions: CHO H5-HT1aR membranes; ref Thiagaraj et al., 2007 [53]; read-out: Conc. (uM) at which specific high affinity [3H]8-OH-DPAT binding is decreased by 50% (IC50); cited from earlier work. From the text: (§1) Table 2 ic2 Peptide mimic effect on [3H]8-OH-DPAT binding. All binding inhibition values are percent of control agonist (ag.) bound. The upper portion of the table is for peptides nearer the C-terminus, including P11 from Thiagaraj et al., 2007 [53]. These peptides decreased the specific high affinity binding of 5HT1aR agonist [^3H]-8-OH-DPAT by 50% at the given concentration. The lower portion | column: Conc. (uM); % cont. ag, bound, (SEM) || Table 3 ic3 Peptide mimic coupling and signal transduction data. Summary of data generated for all ic3 experiments with P12 and P13. P1 is included as a reference, from Hayataka et al., 1998 [49]. Nominal values for control agonist binding were 400 fmoles/mg protein. | column: Agonist (%) inhibition

Experiment [4] has as its system CHO cells expressing the human 5HT1aR. As to conditions: peptide 30 uM (Figure 3), 30 uM FSK, IBMX; ref Thiagaraj et al., 2007 [53]; SEM; cited from earlier work.
Description: as §1, with “[cAMP]” for “Conc. (uM); % cont. ag, bound,”, “% Inhibition of FSK-stimulated cAMP” for “Agonist (%) inhibition”

For experiment [5], the system named is Gi in H5-HT1aR membranes from transfected CHO cells. As to conditions: peptide 30 uM (Figure 2); ref Thiagaraj et al., 2007 [53]; SEM; cited from earlier work.
Description: as §1, with “GTP Incorp.” for “Conc. (uM); % cont. ag, bound,”, “[35S]-γ-S-GTP incorporation% above conro” for “Agonist (%) inhibition”

Experiment [6] deals with T1, H5-HT1aR. As to the kind of experiment: Inhibition of agonist [3H]8-OH-DPAT binding (measure of receptor-G-protein coupling). The procedure: Cells were trypsinized and centrifuged at low speed in ice-cold medium. The pellet was resuspended in ice-cold Earle's Balanced Salt Solution followed by centrifugation. Cells were resuspended in 10 mL of ice-cold binding buffer (50 mM Tris, 4 mM CaCl2, 10 μM pargyline, and pH 7.4), homogenized with Teflon-glass, and centrifuged for 450,000 g-min. at 4°C. For a crude membrane preparation, the pellet was resuspended in 30 mL of ice-cold binding buffer, homogenized on Teflon-glass and then by Polytron (setting 4) for 5 seconds, and stored on ice and assayed within the next 1.5 hours.
Binding of the agonist [3H]8-OH-DPAT ([3H]8-hydroxy-2-(di-n-propylamino)tetralin) to H5-HT1aR followed well-characterized protocols. Radioligands were purchased from New England Nuclear (NEN), Boston, MA, and 1 mL reaction mixtures, in triplicate, were incubated for 30 min. in a 30°C shaker. The 1 mL mixture was 700 μL of receptor preparation; 100 μL of binding buffer (for total binding) or 10 μM 5-HT (for nonspecific binding), 100 μL of the tritiated agent (concentration of 0.5 nM [3H] 8-OH-DPAT), and 100 μL of peptide or binding buffer in the case of controls.
Reactions were stopped by addition of 4 mL of ice-cold 50 mM Tris buffer, pH 7.4, and vacuum filtration on glass fiber filters (Whatman GF/B). Filters were rinsed twice in 5 mL of ice-cold Tris buffer, dried, and counted in 5 mL of Ecoscint (National Diagnostics) liquid scintillation fluid in a Beckman LS 6500. Homogenates were assayed for protein to maintain a nominal value of 50 μg protein per filter. All tubes were run in triplicate.

Experiment [7] addresses Gi (G protein coupled to the human 5HT1a receptor in CHO cells) (Chinese hamster (endogenous in CHO)).
The target is the same in experiment [8]. This is another data set of the same source.
[9] abbreviates: CHO H5-HT1aR membranes, 0.5 nM [3H]8-OH-DPAT, 30 min 30°C, shallow curves, read-out: Conc. (uM) at which specific high affinity [3H]8-OH-DPAT binding is decreased by 50% (IC50).

Like-named read-outs stand apart in the source and are kept apart here. Where no end group is shown, it is not given here.

Regarding `NCCc1c[nH]c2ccc(O)cc12` [Peptide 5HT, 5-hydroxytryptamine, reference compound], the “[cAMP] (SEM), relative to FSK-stimulated control” value in experiment [1] (1 uM 5-HT) is recorded as 21 (4) %. Also, in experiment [1] (5HT alone (1 uM per method)), the “FSK stimulated cAMP (%)” value turned out to be 24 ± 1%.

Turning to “DPIDYVNKRT [Peptide P25, ic2 loop peptide mimic of H5HT1aR]”, the “[cAMP] (SEM), relative to FSK-stimulated control” value in experiment [1] (peptide 30 uM (Figure 3)) was 64 (3) %. For the same molecule, in experiment [2], the “GTP Incorp. (SEM), γ-[35S]-GTP into Gi, percent of control” value (“GTP Incorp. (SEM) … percent of control” for short) is reported as 126 (10) %.

Consider “IALDRYWAITD [Peptide P11, ic2 N-terminal (TM3/ic2) peptide mimic of H5HT1aR from a previous study, Thiagaraj et al., 2007]”, for which the IC50 in experiment [3] is 7 µM. Moreover, in experiment [4], the “[cAMP] (SEM), relative to FSK-stimulated control” value is on record as 87 (8) %. In addition, the “GTP Incorp. (SEM) … percent of control” value in experiment [5] is given as 100 (3) %.

In the case of “IDYVNKRTPR [Peptide P26, ic2 loop peptide mimic of H5HT1aR]”, in experiment [1] (peptide 30 uM (Figure 3)), the “[cAMP] (SEM), relative to FSK-stimulated control” value is reported as 100 (5) %. For the same molecule, the “GTP Incorp. (SEM) … percent of control” value in experiment [2] was 111 (9) %.

With ITDPIDYVNK [Peptide P24], in experiment [1] (peptide 30 uM (Figure 3)), the “[cAMP] (SEM), relative to FSK-stimulated control” value was 45 (7) %. In experiment [2], the “GTP Incorp. (SEM) … percent of control” value is 146 (17) %.

Consider “KTVKKVEKTG [Peptide P12, ic3 peptide mimic of H5HT1aR]”, for which the inhibition (commonly the percentage by which the read-out fell short of the control) in experiment [6] (peptide 30 uM, maximum inhibition possible with the highest soluble concentration) is 28%; in experiment [1] (peptide 30 uM, read-out: % Inhibition of FSK-stimulated cAMP), 0%. The “Change in intracellular cAMP concentration (in words)” value in experiment [1] (FSK-stimulated, peptide 30 uM (Figure 5)) is listed as “not altered”. In experiment [1] (peptide alone 30 uM), the “FSK stimulated cAMP (%)” value stood at 100 ± 6%. For the same molecule, the “[35S]-γ-S-GTP incorporation% above conro” value in experiment [2] (peptide 30 uM) turned out to be 24%.

As to LDRYWAITDP [Peptide P21], in experiment [6] (setting [9]), the IC50 worked out at 15 µM.

RYWAITDPID [Peptide P22]: in experiment [6] (setting [9]), the IC50 came to 16 µM.

Regarding VKKVEKTGAD [Peptide P13], in experiment [6] ([3H]8-OH-DPAT, if 50% is listed, the concentration is the IC50, read-out: Agonist (%) inhibition: concentration giving 50% (IC50)), the IC50 is 15 µM. The inhibition in experiment [6] (peptide 15 uM) is 50%.

As for WAITDPIDYV [Peptide P23], the IC50 in experiment [6] (setting [9]) was 30 µM.

“YVNKRTPRPR [Peptide P27, ic2 loop peptide mimic of H5HT1aR, C-terminal end]”: the “[cAMP] (SEM), relative to FSK-stimulated control” value in experiment [1] (peptide 30 uM (Figure 3)) is 132 (6) %. Further, the “GTP Incorp. (SEM) … percent of control” value in experiment [2] is given as 130 (7) %.

B1: P22, ic2 loop peptide mimic of the human 5HT1a receptor (peptide)
peptide: RYWAITDPID
For the molecule B1, the IC50 of agonist inhibition: peptide concentration at which specific [3H]8-OH-DPAT binding to H5-HT1aR in CHO membranes falls to about 50% of control (uncoupling of receptor from G protein) in experiment [7] came out at 16 µM.

B2: P12, ic3 loop peptide mimic of the human 5HT1a receptor (peptide)
peptide: KTVKKVEKTG
B2: in experiment [8], the % inhibition of FSK-stimulated cAMP at 30 uM peptide, CHO cells expressing H5HT1aR is -0 % inhibition; the [35S]-γ-S-GTP incorporation into Gi, % above control, at 30 uM peptide, CHO H5HT1aR membranes (% above control) was found to be 24; the agonist ([3H]8-OH-DPAT) % inhibition at 30 uM peptide, H5-HT1aR in CHO membranes (maximum inhibition possible with the highest soluble concentration; uncoupling of receptor from G protein) was determined as 28 % inhibition.

B3: P23, ic2 loop peptide mimic of the human 5HT1a receptor (peptide)
peptide: WAITDPIDYV
Regarding B3, the IC50 of agonist inhibition: peptide concentration at which specific [3H]8-OH-DPAT binding to H5-HT1aR in CHO membranes falls to about 50% of control (uncoupling of receptor from G protein) in experiment [7] worked out at 30 µM.

B4: P21, ic2 loop peptide mimic of the human 5HT1a receptor (peptide)
peptide: LDRYWAITDP
Turning to B4, the IC50 of agonist inhibition: peptide concentration at which specific [3H]8-OH-DPAT binding to H5-HT1aR in CHO membranes falls to about 50% of control (uncoupling of receptor from G protein) in experiment [7] was found to be 15 µM.

B5: P13, ic3 loop peptide mimic of the human 5HT1a receptor (peptide)
peptide: VKKVEKTGAD
For B5, in experiment [8], the % inhibition of FSK-stimulated cAMP at 30 uM peptide, CHO cells expressing H5HT1aR (negative: cAMP increased) was -24 % inhibition; the IC50 of agonist inhibition: peptide concentration giving 50% inhibition of [3H]8-OH-DPAT binding to H5-HT1aR in CHO membranes (uncoupling of receptor from G protein) came out at 15 µM; the [35S]-γ-S-GTP incorporation into Gi, % above control, at 30 uM peptide, CHO H5HT1aR membranes (% above control) worked out at 12.

These data come from PMC3357532, “Intracellular Loop 2 Peptides of the Human 5HT1a Receptor are Differential Activators of Gi” (International Journal of Peptides, 2012).
